Values quoted from earlier work in US10449129B2, “Encapsulates of salicylic acid and polysalicylic acid derivatives” (Biocogent, LLC, priority 2015, dated 2019).

Conditions: room temperature

limit of solubility in water: approximately 0.2%
SMILES: O=C(O)c1ccccc1O [SA, salicylic acid]
